Tests used:
MDA-MB-435 [1] = assay: inhibition of the growth of breast cancer (MDA-MB-435) cell line; type: functional; settings: Homo sapiens
SF-295 [2] = assay: Inhibition of the growth of CNS cancer(SF-295) cell line at 0.01 uM; type: functional; settings: Homo sapiens
SK-MEL-5 [3] = assay: inhibition of the growth of melanoma cancer (SK-MEL-5) cell line; type: functional; settings: Homo sapiens
SR = assay: inhibition of the growth of leukemia(SR) cell line; type: functional; settings: Homo sapiens
OVCAR-8 [4] = assay: inhibition of the growth of ovarian cancer(OVCAR-8) cell line; type: functional; settings: Homo sapiens
MDA-N [5] = assay: inhibition of the growth of breast cancer(MDA-N) cell line; type: functional; settings: Homo sapiens
NCI-H23 [6] = assay: inhibition of the growth of non-small-cell lung cancer (NCI-H23) cell line; type: functional; settings: Homo sapiens
NCI-H522 = assay: inhibition of the growth of non-small-cell lung cancer (NCI-H522) cell line; type: functional; settings: Homo sapiens
M14 = assay: inhibition of the growth of melanoma cancer (M14) cell line; type: functional; settings: Homo sapiens
UO-31 [7] = assay: inhibition of the growth of renal cancer(UO-31) cell line; type: functional; settings: Homo sapiens
A549 [8] = assay: Inhibition of the growth of non-small-cell lung cancer (A549/ATCC) cell line at 0.01 uM; type: functional; settings: Homo sapiens
SNB-19 [9] = assay: Inhibition of the growth of CNS cancer(SNB-19) cell line at 0.01 uM; type: functional; settings: Homo sapiens
MCF7 = assay: inhibition of the growth of breast cancer (MCF-7) cell line; type: functional; settings: Homo sapiens
OVCAR-8 [10] = assay: Inhibition of the growth of ovarian cancer(OVCAR-8) cell line at 0.01 uM; type: functional; settings: Homo sapiens
SNB-19 [11] = assay: inhibition of the growth of CNS cancer(SNB-19) cell line; type: functional; settings: Homo sapiens
MDA-MB-435 [12] = assay: Inhibition of the growth of breast cancer (MDA-MB-435) cell line at 0.01 uM; type: functional; settings: Homo sapiens
A549 [13] = assay: inhibition of the growth of non-small-cell lung cancer (A549/ATCC) cell line; type: functional; settings: Homo sapiens
NCI/ADR-RES = assay: inhibition of the growth of breast cancer (MCF7/ADR-RES) cell line; type: functional; settings: Homo sapiens
IGROV-1 [14] = assay: inhibition of the growth of ovarian cancer(IGROVI) cell line; type: functional; settings: Homo sapiens
Dihydrofolate reductase [15] = target: T1, Dihydrofolate reductase (Rattus norvegicus, UniProt Q920D2)
T1 sequence (Q920D2 whole entry): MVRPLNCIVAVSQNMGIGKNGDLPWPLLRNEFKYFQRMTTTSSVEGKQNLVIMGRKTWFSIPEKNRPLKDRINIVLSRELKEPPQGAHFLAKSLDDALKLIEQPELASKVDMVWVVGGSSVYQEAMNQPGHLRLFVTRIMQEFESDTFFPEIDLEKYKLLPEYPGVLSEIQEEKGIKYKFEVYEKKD
Description: Inhibitory activity against dihydrofolate reductase (DHFR) from rat liver

SF-295 [16] = assay: inhibition of the growth of CNS cancer(SF-295) cell line; type: functional; settings: Homo sapiens
Dihydrofolate reductase [17] = target: T2, Dihydrofolate reductase (Pneumocystis carinii, UniProt P16184)
T2 sequence (P16184 whole entry): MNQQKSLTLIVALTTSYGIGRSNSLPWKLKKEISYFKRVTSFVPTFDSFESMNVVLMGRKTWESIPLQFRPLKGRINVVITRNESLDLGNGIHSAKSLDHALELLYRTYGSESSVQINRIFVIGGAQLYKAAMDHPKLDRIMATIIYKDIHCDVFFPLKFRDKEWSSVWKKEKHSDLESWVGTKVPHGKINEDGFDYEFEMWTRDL
Description: Inhibitory activity against dihydrofolate reductase (DHFR) from Pneumocystis carinii

HCT-15 [18] = assay: inhibition of the growth of colon cancer(HCT-15) cell line; type: functional; settings: Homo sapiens
HCT-116 [19] = assay: Inhibition of the growth of colon cancer(HCT116) cell line at 0.01 uM; type: functional; settings: Homo sapiens
CAKI-1 = assay: inhibition of the growth of renal cancer(CAKI-1) cell line; type: functional; settings: Homo sapiens
786-0 = assay: inhibition of the growth of renal cancer(786-0) cell line; type: functional; settings: Homo sapiens
UO-31 [20] = assay: inhibition of the growth of renal cancer(UO-31) cell line at 0.01 uM; type: functional; settings: Homo sapiens
MOLT-4 = assay: inhibition of the growth of leukemia (MOLT-4) cell line; type: functional; settings: Homo sapiens
DU-145 = assay: inhibition of the growth of prostate cancer(DU-145) cell line; type: functional; settings: Homo sapiens
SF-268 [21] = assay: inhibition of the growth of CNS cancer(SF-268) cell line; type: functional; settings: Homo sapiens
NCI-H460 [22] = assay: inhibition of the growth of non-small-cell lung cancer (NCI-H460) cell line; type: functional; settings: Homo sapiens
NCI-H460 [23] = assay: Inhibition of the growth of non-small-cell lung cancer (NCI-H460) cell line at 0.01 uM; type: functional; settings: Homo sapiens
HCT-116 [24] = assay: inhibition of the growth of colon cancer(HCT116) cell line; type: functional; settings: Homo sapiens
[25] = target: T3, Bifunctional dihydrofolate reductase-thymidylate synthase (Toxoplasma gondii, UniProt Q07422)
T3 sequence (Q07422 whole entry): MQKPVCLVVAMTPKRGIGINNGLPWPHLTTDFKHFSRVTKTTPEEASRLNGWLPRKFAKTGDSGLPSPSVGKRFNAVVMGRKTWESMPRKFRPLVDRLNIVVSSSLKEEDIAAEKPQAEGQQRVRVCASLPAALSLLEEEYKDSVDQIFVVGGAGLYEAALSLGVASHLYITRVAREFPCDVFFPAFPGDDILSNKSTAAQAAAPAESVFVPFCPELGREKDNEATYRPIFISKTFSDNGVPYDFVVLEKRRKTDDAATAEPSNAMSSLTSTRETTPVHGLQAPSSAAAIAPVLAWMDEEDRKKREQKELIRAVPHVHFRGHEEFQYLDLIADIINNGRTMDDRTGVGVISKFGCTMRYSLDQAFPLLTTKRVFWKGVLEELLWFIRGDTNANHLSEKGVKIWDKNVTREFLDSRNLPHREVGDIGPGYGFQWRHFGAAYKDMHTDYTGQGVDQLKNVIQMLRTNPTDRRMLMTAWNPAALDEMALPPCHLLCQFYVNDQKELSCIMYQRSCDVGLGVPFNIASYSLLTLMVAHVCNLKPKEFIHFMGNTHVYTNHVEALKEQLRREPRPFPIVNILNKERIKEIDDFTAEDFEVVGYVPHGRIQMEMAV
Description: Inhibitory activity against dihydrofolate reductase (DHFR) from Toxoplasma gondii

SK-MEL-5 [26] = assay: Inhibition of the growth of melanoma cancer (SK-MEL-5) cell line at 0.01 uM; type: functional; settings: Homo sapiens
MDA-N [27] = assay: Inhibition of the growth of breast cancer(MDA-N) cell line at 0.01 uM; type: functional; settings: Homo sapiens
RPMI-8226 [28] = assay: inhibition of the growth of leukemia (RPMI-8226) cell line; type: functional; settings: Homo sapiens
IGROV-1 [29] = assay: Inhibition of the growth of ovarian cancer(IGROVI) cell line at 0.01 uM; type: functional; settings: Homo sapiens
NCI-H23 [30] = assay: Inhibition of the growth of non-small-cell lung cancer (NCI-H23) cell line at 0.01 uM; type: functional; settings: Homo sapiens
KM12 = assay: inhibition of the growth of colon cancer(KM-12) cell line; type: functional; settings: Homo sapiens
RPMI-8226 [31] = assay: Inhibition of the growth of leukemia (RPMI-8226) cell line at 0.01 uM; type: functional; settings: Homo sapiens
SF-268 [32] = assay: Inhibition of the growth of CNS cancer(SF-268) cell line at 0.01 uM; type: functional; settings: Homo sapiens
SF-539 = assay: inhibition of the growth of CNS cancer(SF-539) cell line; type: functional; settings: Homo sapiens
HCT-15 [33] = assay: Inhibition of the growth of colon cancer(HCT-15) cell line at 0.01 uM; type: functional; settings: Homo sapiens
NCI-H322M = assay: inhibition of the growth of non-small-cell lung cancer (NCI-H322M) cell line; type: functional; settings: Homo sapiens

COc1cc(N(C)c2ccc3nc(N)nc(N)c3n2)cc(OC)c1OC
GI50 (MDA-MB-435 [1]): < 10 nM
inhibition at 0.01 µM (SF-295 [2]): 53%
GI50 (SK-MEL-5 [3]): < 10 nM
GI50 (SR): 30 nM
GI50 (OVCAR-8 [4]): < 10 nM
GI50 (MDA-N [5]): < 10 nM
GI50 (NCI-H23 [6]): < 10 nM
GI50 (NCI-H522): 30 nM
GI50 (M14): 20 nM
GI50 (UO-31 [7]): < 10 nM
inhibition at 0.01 µM (A549 [8]): 67%
inhibition at 0.01 µM (SNB-19 [9]): 53%
GI50 (MCF7): 40 nM
inhibition at 0.01 µM (OVCAR-8 [10]): 57%
GI50 (SNB-19 [11]): < 10 nM
inhibition at 0.01 µM (MDA-MB-435 [12]): 56%
GI50 (A549 [13]): < 10 nM
GI50 (NCI/ADR-RES): 10 nM
GI50 (IGROV-1 [14]): < 10 nM
IC50 (Dihydrofolate reductase [15]): 3.7 nM
GI50 (SF-295 [16]): < 10 nM
IC50 (Dihydrofolate reductase [17]): 21 nM
GI50 (HCT-15 [18]): < 10 nM
inhibition at 0.01 µM (HCT-116 [19]): 76%
GI50 (CAKI-1): 10 nM
GI50 (786-0): 20 nM
inhibition at 0.01 µM (UO-31 [20]): 65%
GI50 (MOLT-4): 40 nM
GI50 (DU-145): 220 nM
GI50 (SF-268 [21]): < 10 nM
GI50 (NCI-H460 [22]): < 10 nM
inhibition at 0.01 µM (NCI-H460 [23]): 79%
GI50 (HCT-116 [24]): < 10 nM
IC50 [25]: 7.6 nM
inhibition at 0.01 µM (SK-MEL-5 [26]): 60%
inhibition at 0.01 µM (MDA-N [27]): 58%
GI50 (RPMI-8226 [28]): < 10 nM
inhibition at 0.01 µM (IGROV-1 [29]): 52%
inhibition at 0.01 µM (NCI-H23 [30]): 51%
GI50 (KM12): 40 nM
inhibition at 0.01 µM (RPMI-8226 [31]): 56%
inhibition at 0.01 µM (SF-268 [32]): 61%
GI50 (SF-539): 20 nM
inhibition at 0.01 µM (HCT-15 [33]): 57%
GI50 (NCI-H322M): 11000 nM

Reference: ChEMBL document CHEMBL1131172 (J Med Chem, 1998)
